What was measured:
[1] = tested on: megakaryocytic cells from primary hematopoietic progenitor cells; assay: Megakaryocyte growth in expanded CD34+ cells transduced with shControl or shTRB3; assay type: cell-based, human; conditions: for MK cell number: cultured one week with anagrelide; for Inhibition of megakaryocyte growth: vs DMSO
Text: UT7/mpl cells (clone 5.1) (Goncalves et al., Leukemia 12:1355-1366 (1998)) or human umbilical cord blood CD34+ hematopoietic cells were infected with pLKO.1-puro lentiviral vectors carrying short hairpin (sh) RNA sequences against human TRB-3 (designated shTRB3.1 to shTRB3.5) or a non-targeting scramble shRNA (designated shControl). shRNA clones were purchased from Sigma.
Expanded CD34+ cells (see Materials and Methods Section of Example 1) were infected as described above and then were sub-cultured under standard megakaryocyte culture conditions with anagrelide or an equivalent amount of vehicle for 2 days prior to addition of 1 μg/ml puromycin and further differentiation for 5 days.
CD61 expression of live cells was analysed by flow cytometry following double staining with 7-amino actinomycin D and the FITC-conjugated monoclonal antibody Y2/51 (Dako cytomation) or an isotype-matched control antibody; the latter was used to set a boundary between positive and negative cells.
Table 1 illustrates the effect of TRB-3 silencing on the ability of anagrelide-to inhibit megakaryocyte growth in cultures of primary hematopoietic progenitor cells. Expanded CD34+ cells were infected overnight with shControl or with a mixture of shTRB3.4 and shTRB3.5. Cells were then cultured for one week in the presence of anagrelide or an equivalent amount of vehicle under standard megakaryocyte culture conditions, except that 1 ug/ml puromycin was added after 2 days. The number of megakaryocytic cells was determined by cell counting of viable cells and flow cytometry.

TRB-3 mRNA expression = assay: TRB-3 expression assay (quantitative RT-PCR) in megakaryocyte cultures of expanded CD34+ cells; assay type: cell-based, human
Method: CD34+ cells were thawed, washed by centrifugation (300 g for 10 min at room temperature) in Stemspan™ medium (Stem Cell Technologies, London, UK) and then seeded in 48-well Falcon plates at a density of 1.5×10^5 cells/ml in the above culture medium supplemented with 100 U/ml penincillin, 0.1 mg/ml streptomycin, 0.25 μg/ml amphothericin B, 2% human umbilical cord blood plasma, 40 ng/ml TPO (Insight, UK), 50 ng/ml SCF, 100 ng/ml Flt3 ligand, and 10 ng/ml IL-3 (all from R&D Systems, Abingdon, UK). Cells were grown four days at 37° C. in a humidified incubator under 5% CO2/95% air.
The expanded cells were washed free of cytokines by centrifugation as above and re-suspended to 1.5×10^5 cells/ml by addition of fresh Stemspan™ culture medium containing 2% human umbilical cord plasma and 40 ng/ml TPO. Cells were then grown in 48-well Falcon plates at 37° C. in a humidified incubator under 5% CO2/95% air in the presence of either anagrelide, another test agent or an equivalent amount of vehicle (between 0.01% to 0.05% DMSO). At various time points the cells were harvested and processed for RNA extraction or for determination of CD61 antigen expression and total cell counting.
Cellular RNA was extracted with RNeasy reagent (Qiagen) according to the manufacturer's instructions and cDNA was prepared from 0.1-0.5 μg total RNA template using random hexamer primers and a High Capacity Reverse Transcription kit or a High Capacity RNA-to-cDNA Master Mix (Applied Biosystems). cDNA aliquots were either used immediately or stored at −20° C. for PCR analysis at a later stage. cDNA aliquots (equivalent to 5-10 ng of input RNA) were then analysed in duplicates by real-time PCR using gene-specific TaqMan probes on an ABI Prism 7500 Sequence Detection System (Applied Biosystems). Probes for TRB-3 (Hs00221754_m1), GpIIb (Hs00166246_m1), GUSB (Hs99999908_m1) and TBP (Hs99999910_m1) were commercially available from the Assay on Demand gene expression collection (Applied Biosystems). Thermal conditions were the following: 20 seconds at 95° C. followed by 40 cycles of 3 seconds at 94° C. and 30 seconds at 60° C. Reactions without cDNA were included as controls. Relative mRNA expression levels were calculated using the comparative cycle threshold (CT) method (Livak and Schmittgen, 2001) using the CT values obtained for β-glucuronidase (GUSB) or TATA Box binding protein (TBP) as internal references. For each target gene to be quantified, validation experiments were performed to determine that the efficiency of amplification of target and reference gene was approximately equal. When analysing dose responses EC50 values were calculated with Prism software (Version 4, GraphPad Software Inc, CA, USA).
In order to ascertain the sensitivity of the described method, dose-response curves were constructed based on the effect of anagrelide on TRB-3 mRNA expression using different numbers of cells. Cells were cultured for 4 days under standard MK culture conditions in the presence of increasing concentrations of anagrelide. RNA was extracted from the cells, and TRB-3 mRNA expression was determined by quantitative RT-PCR using β-glucuronidase as an endogenous reference. Results shown in FIG. 3 were expressed relative to the TRB-3 mRNA level detected in cells treated with vehicle alone. EC50 values were calculated using a sigmoidal dose response (variable slope) curve-fit model. Values in brackets represent the 95% CI. Error bars (SD) smaller than the size of the symbol are not shown.
Expanded CD34+ cells (see Materials and Methods Section of Example 1) were pre-incubated for various lengths of time under standard megakaryocyte culture conditions in the absence of the test agent and then treated with the test agent or an equivalent amount of vehicle for 24 hours prior to harvesting. TRB-3 mRNA expression was determined as described in the Materials and Methods Section of Example 1.

[2] = tested on: phosphodiesterase type III; conditions: cited from earlier work
[3] = shTRB3 (shTRB3.4 + shTRB3.5)-transduced cells

Row | Molecule | MK cell number ([1]; shControl-transduced cells) | Inhibition of megakaryocyte growth ([1]; shControl-transduced cells) [%] | MK cell number [1, 3] | Inhibition of megakaryocyte growth [1, 3] [%] | TRB-3 mRNA response to 24 h exposure (TRB-3 mRNA expression; 1 μM, 24 h exposure following the refractory phase (after initial 2-3 days)) | TRB-3 mRNA response to 24 h exposure (TRB-3 mRNA expression; 1 μM, exposure confined to the initial 2-3 days of culture) | TRB-3 expression, 24 h treatment after three days of culture vs continuous four day exposure (TRB-3 mRNA expression; 1 μM, last 24 h vs continuous) | extent of TRB-3 expression response (fold increase vs vehicle) (TRB-3 mRNA expression; 4 days, RNA extracted from 25,000 cells) [fold] | extent of TRB-3 expression response (fold increase vs vehicle) (TRB-3 mRNA expression; 4 days, RNA extracted from 200,000 cells) [fold] | EC50 (TRB-3 mRNA expression; Homo sapiens, 96 h, 4 days, standard MK culture, RNA extracted from 200,000 cells, 95% CI 9 to 27 nM, read-out: EC50 for increase in TRB-3 mRNA expression) [nM] | inhibition of phosphodiesterase type III [2] | effect on TRB-3 expression (TRB-3 mRNA expression)
1 | O=C1CN2Cc3c(ccc(Cl)c3Cl)N=C2N1 [Anagrelide, 6,7-dichloro-1,5-dihydroimidazo (2,1-b)quinazolin-2(3H)-one] | 106 ×10^3 | 49.3 | 202 ×10^3 | 21.5 | sharp increase in TRB-3 expression | relatively weak | higher level of TRB-3 expression than if the drug was present for the entire four day period of culture | 1.8 | 3 | 15 | potent inhibitor | 
2 | TPO: thrombopoietin, the primary signal for megakaryocyte production |  |  |  |  |  |  |  |  |  |  |  | reduces TRB-3 expression

— patent US9017936B2, “Assays for agents affecting megakaryocyte development” (Shire Human Genetic Therapies, Inc., priority 2009, dated 2015)
